In ChEMBL document CHEMBL4483862, “Open-source discovery of chemical leads for next-generation chemoprotective antimalarials” (2018) one finds IC50 and IC90 data, which are given here for 29 compounds.

A word on the IC50: it is the concentration that inhibits the measured activity by half. As usually defined, the IC90 is the concentration at which the effect reaches the 90% level.

This assay has as its system Plasmodium berghei. As to the kind of experiment: Luciferase/luciferin-expressing antifolate-resistant parasites were used to infect a culture of HepG2 cells that were pre-incubated with compounds. Infected hepatocytes emit light due to the luciferase reaction. Assay results are presented as the percent inhibition of light emission compared to control. […]. Format: functional. Conditions: sporozoite; for IC90: read-out: LUCIFERASE INFECTION ASSAY - IC90.

A value given as a limit tells only on which side of the number the result lay.

In the case of `COc1ccc(CC(N)c2csc(NC(=O)c3cc(C(C)(C)C)nn3Cc3ccccc3)n2)cc1` (stereo not drawn), the IC90 was determined as 5.64 µM. For the same compound, the IC50 (HEPG2TOX_HILL_SLOPE 1.31, HEPG2TOX_R_SQUARED 0.716, PBLUC_HILL_SLOPE 7.57, PBLUC_R_SQUARED 0.705, read-out: LUCIFERASE INFECTION ASSAY - IC50) was determined as 4.22 µM.

On to `CN(C)CCNC(=O)c1cccc(-c2cnc3ccc(-c4cccc(NS(C)(=O)=O)c4)nn23)c1`, for which the IC90 was found to be 1.3 µM. Further, for the setting “HEPG2TOX_HILL_SLOPE 1.31, HEPG2TOX_R_SQUARED 0.978, PBLUC_HILL_SLOPE 2.06, PBLUC_R_SQUARED 0.888, read-out: LUCIFERASE INFECTION ASSAY - IC50”, the IC50 turned out to be 0.447 µM.

Regarding `COc1cccc(C(=O)Nc2nc3ccc(Br)cn3n2)c1`, the IC90 was > 9.51 µM. The IC50 (HEPG2TOX_HILL_SLOPE 1.29, HEPG2TOX_R_SQUARED 0.954, read-out: LUCIFERASE INFECTION ASSAY - IC50) was > 9.51 µM.

In the case of `COc1ccc(-c2nc(C(=O)NC3CC3)cc3c2[nH]c2ccccc23)cc1`, the IC90 was determined as 7.59 µM. Further, the IC50 (HEPG2TOX_HILL_SLOPE 1.32, HEPG2TOX_R_SQUARED 0.984, PBLUC_HILL_SLOPE 2.25, PBLUC_R_SQUARED 0.475, read-out: LUCIFERASE INFECTION ASSAY - IC50) came out at 2.85 µM.

In the case of `COc1cc(CSc2nc3ccccc3c(=O)n2C(C)C)ccc1OC(F)F`, the IC90 was 3.99 µM. For the same compound, under “HEPG2TOX_HILL_SLOPE 1.32, HEPG2TOX_R_SQUARED 0.932, PBLUC_HILL_SLOPE 1.38, PBLUC_R_SQUARED 0.834, read-out: LUCIFERASE INFECTION ASSAY - IC50”, the IC50 came out at 0.81 µM.

For `Cn1c(NCC2CC2)nc2cnc(Nc3cccc(Oc4ccccc4)c3)cc21`, the concentration for an effect of 90% (IC90) amounted to 3.77 µM. In addition, the IC50 (HEPG2TOX_HILL_SLOPE 1.32, HEPG2TOX_R_SQUARED 0.983, PBLUC_HILL_SLOPE 3.67, PBLUC_R_SQUARED 0.52, read-out: LUCIFERASE INFECTION ASSAY - IC50) worked out at 2.07 µM.

Take `Cc1cc(C(=O)COc2ccccc2C(N)=O)c(C)n1C(C)c1ccccc1` (stereo not drawn): the IC90 is > 10 µM. Besides, the IC50 (HEPG2TOX_HILL_SLOPE 1.33, HEPG2TOX_R_SQUARED 0.859, PBLUC_HILL_SLOPE 2.23, PBLUC_R_SQUARED 0.779, read-out: LUCIFERASE INFECTION ASSAY - IC50) came to 4.55 µM.

On to `CC(C)c1ccc(NC(=O)C2=COC3=NC(=O)N(Cc4cccc(C#N)c4)CCN23)cc1`, for which the IC90 came to 1.27 µM. Besides, the IC50 (HEPG2TOX_HILL_SLOPE 1.33, HEPG2TOX_R_SQUARED 0.794, PBLUC_HILL_SLOPE 15.4, PBLUC_R_SQUARED 0.591, read-out: LUCIFERASE INFECTION ASSAY - IC50) was 1.1 µM.

`Cc1cc(C(=O)Nc2nc3ccc(Cl)cc3s2)c2c(C)nn(C)c2n1`: the IC90 amounted to 9.09 µM. The IC50 (HEPG2TOX_HILL_SLOPE 1.29, HEPG2TOX_R_SQUARED 0.966, PBLUC_HILL_SLOPE 2.52, PBLUC_R_SQUARED 0.194, read-out: LUCIFERASE INFECTION ASSAY - IC50) stood at 3.81 µM.

With `COc1ccc(-c2ccc3nnc(-c4ccccc4)n3c2)cc1`, the IC90 amounted to 5.12 µM. For the same compound, the IC50 (HEPG2TOX_HILL_SLOPE 1.32, HEPG2TOX_R_SQUARED 0.91, PBLUC_HILL_SLOPE 2.27, PBLUC_R_SQUARED 0.548, read-out: LUCIFERASE INFECTION ASSAY - IC50) is 1.94 µM.

In the case of `CCOC(=O)c1[nH]c(C)c(C(=O)/C=C/c2c(C)nn3c(C(F)(F)F)ccnc23)c1C`, the IC90 is 0.365 µM. Also, where the note is “HEPG2TOX_HILL_SLOPE 1.29, HEPG2TOX_R_SQUARED 0.824, PBLUC_HILL_SLOPE 0.936, PBLUC_R_SQUARED 0.825, read-out: LUCIFERASE INFECTION ASSAY - IC50”, the IC50 is 0.0349 µM.

Consider `CCOc1cccc(-c2cn3c(-c4ccc(C(=O)NC5CC5)cc4)cnc3cn2)c1`, for which the IC90 came out at 8.02 µM. Moreover, under “HEPG2TOX_HILL_SLOPE 1.3, HEPG2TOX_R_SQUARED 0.854, PBLUC_HILL_SLOPE 1.74, PBLUC_R_SQUARED 0.806, read-out: LUCIFERASE INFECTION ASSAY - IC50”, the IC50 stood at 2.27 µM.

Regarding `CC(C)n1ncc2c1N=C(N(C)C)N(c1ccccc1)C2c1ccc(Cl)cc1` (stereo not drawn), the IC90 is > 10 µM. Moreover, the IC50 (HEPG2TOX_HILL_SLOPE 1.3, HEPG2TOX_R_SQUARED 0.392, read-out: LUCIFERASE INFECTION ASSAY - IC50) is > 10 µM.

Consider `CCOC(=O)c1oc2ccc(Br)cc2c1CSc1nnc(-c2cccs2)n1Cc1ccccc1`, for which the IC90 is > 10 µM. Moreover, the IC50 (HEPG2TOX_HILL_SLOPE 1.32, HEPG2TOX_R_SQUARED 0.694, read-out: LUCIFERASE INFECTION ASSAY - IC50) is > 10 µM.

`CCCc1cc(=O)n2ncc(-c3ccc(Cl)cc3)c2[nH]1`: the IC90 was found to be 3.65 µM. Also, the IC50 (HEPG2TOX_HILL_SLOPE 1.31, HEPG2TOX_R_SQUARED 0.875, PBLUC_HILL_SLOPE 1.68, PBLUC_R_SQUARED 0.622, read-out: LUCIFERASE INFECTION ASSAY - IC50) was found to be 0.989 µM.

In the case of `CCOC(=O)c1[nH]c(C)c(C(=O)/C=C/c2c(C)nn(-c3ccc(F)cc3)c2Cl)c1C`, the IC90 is 0.643 µM. Also, the IC50 (HEPG2TOX_HILL_SLOPE 1.33, HEPG2TOX_R_SQUARED 0.905, PBLUC_HILL_SLOPE 0.748, PBLUC_R_SQUARED 0.781, read-out: LUCIFERASE INFECTION ASSAY - IC50) stood at 0.0341 µM.

As to `Cc1nc(NCCCCCc2n[nH]c(N)c2C#N)c2c(-c3ccccc3)csc2n1`, the IC90 is 7.48 µM. Further, under “HEPG2TOX_HILL_SLOPE 1.31, HEPG2TOX_R_SQUARED 0.867, PBLUC_HILL_SLOPE 3.24, PBLUC_R_SQUARED 0.486, read-out: LUCIFERASE INFECTION ASSAY - IC50”, the concentration for half-maximal inhibition (IC50) was 3.79 µM.

For the compound `CCc1nnc(NC(=O)/C=C/c2cc(Cl)c(OC(C)C)c(OC)c2)s1`, the IC90 is > 10 µM. Moreover, where the note is “HEPG2TOX_HILL_SLOPE 1.31, HEPG2TOX_R_SQUARED 0.955, PBLUC_HILL_SLOPE 2.51, PBLUC_R_SQUARED 0.0872, read-out: LUCIFERASE INFECTION ASSAY - IC50”, the IC50 turned out to be 6.82 µM.

Consider `c1ccc(-c2cn3c(-c4ccc5ncccc5c4)cnc3cn2)cc1`, for which the IC90 stood at 2.41 µM. In addition, the IC50 (HEPG2TOX_HILL_SLOPE 1.31, HEPG2TOX_R_SQUARED 0.967, PBLUC_HILL_SLOPE 1.9, PBLUC_R_SQUARED 0.856, read-out: LUCIFERASE INFECTION ASSAY - IC50) is 0.759 µM.

On to `O=c1cc(-c2ccccc2)[nH]c2cc(-c3ccccc3)nn12`, for which the IC90 was > 11.5 µM. Further, the IC50 (HEPG2TOX_HILL_SLOPE 1.32, HEPG2TOX_R_SQUARED 0.936, PBLUC_HILL_SLOPE 1.62, PBLUC_R_SQUARED 0.566, read-out: LUCIFERASE INFECTION ASSAY - IC50) stood at 3.75 µM.

On to `COc1ccc(C(=O)c2cc(C#N)c(N)n3c2nc2ccccc23)cc1`, for which the IC90 stood at 3.53 µM. Further, the IC50 (HEPG2TOX_HILL_SLOPE 1.32, HEPG2TOX_R_SQUARED 0.922, PBLUC_HILL_SLOPE 2.77, PBLUC_R_SQUARED 0.822, read-out: LUCIFERASE INFECTION ASSAY - IC50) was 1.6 µM.

As for `Cn1ccc2cc(-c3cn4c(-c5ccccc5)cnc4cn3)ccc21`, the IC90 worked out at 2.78 µM. Moreover, for the setting “HEPG2TOX_HILL_SLOPE 1.3, HEPG2TOX_R_SQUARED 0.937, PBLUC_HILL_SLOPE 1.56, PBLUC_R_SQUARED 0.678, read-out: LUCIFERASE INFECTION ASSAY - IC50”, the IC50 turned out to be 0.679 µM.

With `CCOC(=O)c1c(C)[nH]c(C(=O)C(C)OC(=O)CN2C(=O)C3CC=CCC3C2=O)c1C` (stereo not drawn), the IC90 is > 10 µM. The IC50 (HEPG2TOX_HILL_SLOPE 1.33, HEPG2TOX_R_SQUARED 0.914, read-out: LUCIFERASE INFECTION ASSAY - IC50) was > 10 µM.

For `COc1ccc(CN2CCCN(C(=O)c3ccc(CSc4nc5ccccc5[nH]4)cc3)CC2)cc1`, the IC90 is > 10 µM. Further, under “HEPG2TOX_HILL_SLOPE 1.31, HEPG2TOX_R_SQUARED 0.944, read-out: LUCIFERASE INFECTION ASSAY - IC50”, the IC50 is > 10 µM.

Turning to `COc1ccc(C(=O)COC(=O)Cc2cccc(C(F)(F)F)c2)cc1`, the IC90 is 1.69 µM. Moreover, where the note is “HEPG2TOX_HILL_SLOPE 1.29, HEPG2TOX_R_SQUARED 0.956, PBLUC_HILL_SLOPE 8.73, PBLUC_R_SQUARED 0.385, read-out: LUCIFERASE INFECTION ASSAY - IC50”, the IC50 was 1.32 µM.

With `N#C/C(=N\Nc1ccc(Cl)cc1Cl)C(=O)c1ccc(Cl)cc1`, the IC90 came to 1.16 µM. Also, the IC50 (HEPG2TOX_HILL_SLOPE 1.3, HEPG2TOX_R_SQUARED 0.915, PBLUC_HILL_SLOPE 13.3, PBLUC_R_SQUARED 0.668, read-out: LUCIFERASE INFECTION ASSAY - IC50) stood at 0.987 µM.

Consider `C/C(=N\NC(=O)c1ccccc1)c1ccccc1O`, for which the IC90 was > 13 µM. Also, for the setting “HEPG2TOX_HILL_SLOPE 1.31, HEPG2TOX_R_SQUARED 0.966, PBLUC_HILL_SLOPE 10.4, PBLUC_R_SQUARED 0.464, read-out: LUCIFERASE INFECTION ASSAY - IC50”, the IC50 was > 13 µM.

On to `Clc1ccc(CSCc2cc(SCc3ccc(Cl)cc3Cl)nc(-c3ccccn3)n2)cc1`, for which the IC90 was found to be 0.781 µM. In addition, for the setting “HEPG2TOX_HILL_SLOPE 1.3, HEPG2TOX_R_SQUARED 0.951, PBLUC_HILL_SLOPE 11.6, PBLUC_R_SQUARED 0.668, read-out: LUCIFERASE INFECTION ASSAY - IC50”, the IC50 turned out to be 0.646 µM.

`Cc1cc(-c2cc(C(=O)Nc3nnc(C(F)(F)F)[nH]3)c3cnn(C(C)C)c3n2)c(C)s1`: the IC90 was > 10 µM. For the setting “HEPG2TOX_HILL_SLOPE 1.32, HEPG2TOX_R_SQUARED 0.884, PBLUC_HILL_SLOPE 1.68, PBLUC_R_SQUARED 0.6, read-out: LUCIFERASE INFECTION ASSAY - IC50”, the IC50 worked out at 3.79 µM.
